Experimental data: patent publication US20040127455A1, “Muscosal immunoregulatory agent and its use” (KABUSHIKI Kaisha Hayashibara Seibutsu KK, priority 2000, published 2004)

Assays:
[1] = system: immunocompetent cells from the Peyer's patches; test: IL-2, IFN-γ and IgA production by immunocompetent cells from the Peyer's patches of orally treated mice, LPS or Con A stimulation (Experiment 2); type: in vivo, female ddY mice; settings: 0.1 g/kg oral, five times per week for four weeks, three days culture
Procedure: The effect on the response of immunocompetent cells with trehalose administration was evaluated by the production level of IL-2, IFN-γ, and IgA as a merkmal when the immunocompetent cells from the Peyer's patches stimulated with lipopolysaccharide (LPS) or Concanavalin A (Con A). Specifically, 0.1 g/kg mouse body weight of α,α-trehalose was administrated into female ddY mice through oral administration for four weeks with five times per a week, and non-α,α-trehalose administrated mice were used as a control. All the mice were anatomized and picked up all the Peyer's patches, which were then cut into pieces and treated with 0.2% (w/v) of collagenase solution at 37° C. for 30 minutes, passed through a cell strainer to remove non-digestive materials, and centrifuged to obtain a pellet. The pellet was suspended with a 45% (v/v) percol solution, and the suspension was put on a 75% (v/v) percol solution and centrifuged. Then, immunocompetent cells in an inter layer of percol were recovered and suspended in RPMI1640 medium with 10% of fetal calf serum and 5×10^−5 mol/l of 2-mercaptethanol. The resulting suspension was divided into three groups, and the two groups of which were mixed with 2 μg/ml of LPS or 5 μg/ml of Con A and adjusted a final concentration to 1×10^6 cells/ml. The resulting group as a control was not received with the above stimulation. They were incubated for three days in an incubator maintained at 37° C. and 5% CO2. Thereafter, the concentrations of the IL-2, IFN-γ and IgA concentration in the resulting cultures were measured by a conventional immunoassay method in Experiment 1.

[2] = system: immunocompetent cells from the Peyer's patches; test: IFN-γ production by immunocompetent cells from the Peyer's patches of orally treated mice, LPS stimulation (Experiment 1); type: in vivo, male C3H/HeN mice; settings: 1 g/kg oral, once per day for five days, two days culture, versus non-treated mice (FIG. 1)
Procedure: The effect on response of immunocompetent cells with trehalose administration was evaluated based on the production level of IFN-γ as a merkmal when the immunocompetent cells from the Peyer's patches were stimulated with lipopolysaccharide (LPS). IFN-γ is a cytokine which also improves the production of IgA as described above. α,α-Trehalose crystalline powder (registered trademark of “TREHA”, commercialized by Hayashibara Shoji Co. Ltd., Okayama, Japan) was dissolved in distilled water and sterilized, and then administrated into male C3H/HeN, five weeks aged mice (ten mice in each group) through oral pathway for five days by one time per day with a dosage of 1 g/kg mouse body weight of α,α-trehalose. Non-α,α-trehalose administrated mice as a control were administrated with an equal volume of distilled water. All the mice were bred under a clean environment, and freely fed with a sterilized solid fodder and water. […] The cells were incubated for two days in an incubator maintained at 37° C. and 5% CO2, after that, the IFN-γ concentration in each culture was measured by a conventional enzyme immunoassay. […]

OC[C@H]1O[C@H](O[C@H]2O[C@H](CO)[C@@H](O)[C@H](O)[C@H]2O)[C@H](O)[C@@H](O)[C@@H]1O [α,α-Trehalose, α,α-trehalose]
IFN-γ ([1]; no stimulation): Under 0.4 IU/ml | IL-2 ([1]; no stimulation): Under 50 pg | IgA ([1]; no stimulation): 719 ng/mL | IFN-γ ([1]; stimulation Con A 5 μg/ml): 6.4 IU/ml | IL-2 ([1]; stimulation Con A 5 μg/ml): Under 50 pg | IgA ([1]; stimulation Con A 5 μg/ml): 1671 ng/mL | IFN-γ ([1]; stimulation LPS 2 μg/ml): 4.5 IU/ml | IL-2 ([1]; stimulation LPS 2 μg/ml): 115 pg | IgA ([1]; stimulation LPS 2 μg/ml): 2305 ng/mL | IFN-γ production with no LPS stimulation ([2]; cells with 0 μg/ml LPS): tendency to decrease IFN-γ production | IFN-γ production under the LPS stimulation ([2]; cells with 0.2 or 1 μg/ml LPS): stronger tendency of increasing production of IFN-γ
